According to US20140200188A1, “2'-FLUORO SUBSTITUTED CARBA-NUCLEOSIDE ANALOGS FOR ANTIVIRAL TREATMENT” (priority 2010, published 2014):

Columns and labels:
[1] = tested on: Influenza A virus (A/Hong Kong/8/68); assay: Influenza A antiviral assay (H3N2), virus-induced cytopathic effect in MDCK cells; format: cell-based; settings: 120 h, Influenza A/Hong Kong/8/68 (H3N2), MOI 0.03, five day incubation, Cell-titer Glo, read-out: EC50 against the influenza virus
Protocol: MDCK cells were seeded in 96-well plates at a density of 1e5 cells per well in 100 μL of MEM culture medium with 10% FBS. Compounds were 3-fold serially diluted in complete MEM culture medium, with 100 μM as the highest concentration. Each concentration was tested in duplicate. Prior to infection, cells were washed once with 200 μL serum-free MEM. Influenza A virus (A/Hong Kong/8/68, Advanced Biotechnology Inc, Columbia, Md.) was added to cells at MOI 0.03 in 100 ul serum-free MEM containing 27 U/mL trypsin (Worthington, Lakewood, N.J.). After 10 minute incubation at room temperature, 100 μL compound dilutions were added to infected cells for a final volume of 200 μL. After five day incubation at 37° C., virus-induced cytopathic effect was determined by adding Cell-titer Glo viability reagents (Promega, Madison, Wis.) and measuring luminescence on a Victor Luminescence plate reader (Perkin-Elmer, Waltham, Mass.). The cytotoxicity of the compounds in MDCK cells was determined in replicate plates in the same way as in antiviral activity assays, except no virus was added to the cell culture. EC50 and CC50 values were calculated by non-linear regression of multiple data sets using XLFit software (IBDS, Guildford, UK).

[2] = biological target: Influenza RNA polymerase (Influenza A/PR8/34 (H1N1) virus lysate) (Influenza A virus, UniProt P03431); assay: Influenza RNA polymerase inhibition (IC50) assay; format: biochemical

Row | SMILES | EC50 [1] [µM] | IC50 [2] [µM]
1 | Nc1ncnn2c([C@@H]3O[C@H](CO)[C@@H](O)[C@H]3F)ccc12 [Compound 1, (2R,3R,4R,5S)-5-(4-aminopyrrolo[1,2-f][1,2,4]triazin-7-yl)-4-fluoro-2-(hydroxymethyl)-tetrahydrofuran-3-ol] | 10.5 to 12.7 | 
2 | C[C@@]1(c2ccc3c(N)ncnn23)O[C@H](COP(=O)(O)OP(=O)(O)OP(=O)(O)O)[C@@H](O)[C@H]1F [Compound 9, ((2R,3R,4R,5S)-5-(4-aminopyrrolo[1,2-f][1,2,4]triazin-7-yl)-4-fluoro-3-hydroxy-5-methyltetrahydrofuran-2-yl)methyl tetrahydrogen triphosphate] |  | 2.1 to 2.97
3 | N#C[C@@]1(c2ccc3c(N)ncnn23)O[C@H](COP(=O)(O)OP(=O)(O)OP(=O)(O)O)[C@@H](O)[C@H]1F [Compound 10, ((2R,3R,4R,5R)-5-(4-aminopyrrolo[1,2-f][1,2,4]triazin-7-yl-5-cyano-4-fluoro-3-hydroxytetrahydrofuran-2-yl)methyltetrahydrogen triphosphate] |  | 48.6 to 116
4 | Nc1ncnn2c([C@@H]3O[C@H](COP(=O)(O)OP(=O)(O)OP(=O)(O)O)[C@@H](O)[C@H]3F)ccc12 [Compound 11, ((2R,3R,4R,5S)-5-(4-aminopyrrolo[1,2-f][1,2,4]triazin-7-yl-4-fluoro-3-hydroxy-tetrahydrofuran-2-yl)methyltetrahydrogen triphosphate] |  | 0.95 to 1.59
5 | Nc1nc(F)nn2c([C@@H]3O[C@H](COP(=O)(O)OP(=O)(O)OP(=O)(O)O)[C@@H](O)[C@H]3F)ccc12 [Compound 21, ((2R,3R,4R,5S)-5-(4-amino-2-fluoropyrrolo[1,2-f][1,2,4]triazin-7-yl)-4-fluoro-3-hydroxytetrahydrofuran-2-yl)methyl tetrahydrogen triphosphate] |  | 0.97 to 1.87
